According to patent publication US20190321493A1, “MATERIALS AND METHODS FOR TREATING REGIONAL PAIN” (priority 2016, published 2019):

Assays:
[1] = Drug distribution in DRG after convection enhanced delivery of DAPI; type: in vivo, swine; details: FIG. 5
From the text: FIGS. 5A-5C illustrate drug distribution in swine DRG. […] is a schematic of convection enhanced delivery (CED) needle placement in a DRG. FIG. 5B contains an image of a control DRG. FIG. 5C contains an image of a 4′,6-diamidino-2-phenylindole (DAPI) injected DRG.
An incision was made in the overlying skin at an anatomical level affected by pain in a patient. The subcutaneous fat and musculature were incised and reflected, exposing the bony lamina. Using appropriate instruments, a portion of the lamina was removed to expose the neural elements. The meningeal sleeve surrounding the DRG and spinal nerve was surgically exposed by microdissection of bone and tissue, which may require extending the laminectomy dissection, using standard techniques such as blunt or sharp dissection with meticulous hemostasis. Thereby the DRG was exposed and grossly visualized. A convection enhanced delivery needle was placed into the exposed DRG. RTXcap was injected in a preparation that also contains a contrast agent (e.g., in this case DAPI) allowing direct visualization of analgesic agent injection by eye sight with or without a surgical loupe or surgical operating microscope.

[2] = system: nociceptive fibers in the dorsal horn of the spinal cord; assay: Periganglionic (epidural) injection of RTX, immunohistochemistry of spinal cord dorsal horn; type: in vivo, swine; details: FIG. 3B vs 3A
[3] = system: nociceptive neurons of the dorsal root ganglion (DRG); assay: MRI-guided intraganglionic injection of RTX (RTXcap) with gadoteridol into swine DRG, substance P immunohistochemistry; type: in vivo
From the text: FIGS. 1A-1D are fluorescent immunohistochemistry (IHC) images. […] Nociceptive fibers in all panels are visualized using the biomarker substance P (sP).
FIGS. 2A-2C are fluorescent IHC images of a DRG. […] The outcomes in FIG. 2B and FIG. 2C were predicted from intraprocedural imaging performed during RTX delivery (noted as a success (B) and failure (C) to achieve the intended contrast media dispersion).
Domestic swine were chosen because the porcine lumbar spinal column resembles the human lumbosacral anatomy. Swine were sedated with Telazol and Xylazine, intubated and kept under deep isoflurane inhalation anesthesia for the duration of the procedure titrated to effect. Swine were placed in an MRI scanner (GE 3T, GE Healthcare). Overview MRI imaging was obtained of the lumbosacral spine. DRG at the L4, L5, S1, and S2 level were outlined (FIG. 1A).
The guide needle was passed through the skin lateral to the midline and incrementally advanced ventromedially toward the DRG intraprocedural MRI imaging monitored advancement of the needle, and any deviations from the optimal trajectory were corrected. When the needle tip was visualized directly adjacent to the dorsal aspect of the DRG, the stylet of the guide needle was withdrawn. The stepped stylet was then inserted through the guide needle. The length of the stepped stylet exceeded the length of the guide needle and therefore only the stepped tip of the stylet but not the Quincke tip of the guide needle penetrated the DRG parenchyma. The stepped stylet was then withdrawn and replaced by the stepped needle. The prior insertion of the stepped stylet prevented clogging of the narrow needle tip. RTX 5 μg and gadoteridol 1% V/V was injected in a volume of 50 μl per DRG over a period of 5 minutes (RTX was solubilized in water with sulfobutyl ether β-cyclodextrin, designated as RTXcap). MRI imaging verified when the injection was successful and when the injection needed to be repeated (FIG. 4). Pigs were sacrificed 5 weeks post injection and the tissues harvested for histopathological analysis.

| SMILES | distribution in DRG [1] | nociceptive fibers in the dorsal horn of the spinal cord [2] | neurolysis of the targeted tissue ([3]; RTX 5 μg + gadoteridol 1% V/V, 50 μl per DRG, tissues 5 weeks post injection) | nociceptive neurons (sP fluorescence) in DRG ([3]; after failed image-guided injection, FIG. 2C) | nociceptive neurons (sP fluorescence) in DRG ([3]; after successful MRI-guided injection, FIG. 2B) | nociceptive fibers (substance P) in the dorsal horn of the spinal cord ([3]; intraganglionic injection, RTX solubilized in water with sulfobutyl ether β-cyclodextrin, FIG. 1B vs 1A) | nociceptive fibers (substance P) in the dorsal root ganglion ([3]; intraganglionic injection, RTX solubilized in water with sulfobutyl ether β-cyclodextrin, FIG. 1D vs 1C) |
| --- | --- | --- | --- | --- | --- | --- | --- |
| N=C(N)c1ccc(-c2cc3ccc(C(=N)N)cc3[nH]2)cc1 [DAPI, 4′,6-diamidino-2-phenylindole] | good distribution throughout the DRG |  |  |  |  |  |  |
| C=C(C)[C@]12C[C@@H](C)[C@@]34O[C@](Cc5ccccc5)(O[C@@H]1[C@@H]3C=C(COC(=O)Cc1ccc(O)c(OC)c1)C[C@]1(O)C(=O)C(C)=C[C@@H]41)O2 [RTX, resiniferatoxin] |  | elimination of nociceptive fibers | can result in neurolysis of the targeted tissue | normal numbers of nociceptive neurons | elimination of most nociceptive neurons | elimination of nociceptive fibers | elimination of nociceptive fibers |
